Test results from patent US20130131018A1, “SUBSTITUTED ISOQUINOLINES AND THEIR USE AS TUBULIN POLYMERIZATION INHIBITORS” (Exonhit S.A., priority 2010, published 2013).
Where a name gives a salt, the structure may show the parent alone.

System: K562 cell line
Assay: MTT assay: cytotoxicity against the K562 cell line
Assay type: cell-based
Conditions: Homo sapiens, K562 cells, 72 h, growth inhibition
Procedure: Assessment of Cell Viability via MTT Assay: Cytotoxicity of compounds against the K562 cell line was assessed using the [3-(4,5-dimethylthiazol-2-yl)-2,5-diphenyl tetrazolium bromide] (MTT) assay. Fifteen thousand tumor cells were seeded into wells of flat-bottomed 96-well plates. An amount of 2 μL of a dilution series of each compound dissolved in DMSO was added to 198 μL of appropriate growth medium at three replicates per concentration and the plates were incubated in a 5% CO2 incubator at 37° C. After 72 h, the number of metabolically active cells was determined by MTT assay. Absorbance of each well was measured at 550 nm on a Tecan Sunrise reader. Dose-response curves for growth inhibition were generated as a percentage of untreated control. IC50 was determined by nonlinear regression (Prism, Graph Pad Software, Inc.).

CCOc1ccc2c(Cc3cc(OC)c(OC)c(OC)c3)cncc2c1N=[N+]=[N-] [Compound 107, 8-Azido-7-ethoxy-4-(3,4,5-trimethoxybenzyl)isoquinoline]
IC50: 575 nM

CCOc1ccc2c(Cc3cc(OC)c(OCC)c(OC)c3)cncc2c1 [Compound 13, 7-Ethoxy-4-(4-ethoxy-3,5-dimethoxybenzyl)isoquinoline hydrochloride]
IC50: 349 nM

CCOc1c(OC)cc(Cc2cncc3c(OC)c(OC)ccc23)cc1OC [Compound 9, 4-(4-Ethoxy-3,5-dimethoxybenzyl)-7,8-dimethoxyisoquinoline hydrochloride]
IC50: 376 nM

CCOc1ccc2c(Cc3cc(OC)c(NCc4ccccc4)c(OC)c3)cncc2c1O [Compound 51, 4-(4-(Benzylamino)-3,5-dimethoxybenzyl)-7-ethoxyisoquinolin-8-ol hydrochloride]
IC50: 741 nM

CCOc1ccc2c(Cc3cc(OC)c(OC)c(OCC(F)(F)F)c3)cncc2c1O [Compound 87, 4-(3,4-Dimethoxy-5-(2,2,2-trifluoroethoxy)benzyl)-7-ethoxyisoquinolin-8-ol hydrochloride]
IC50: 254 nM

CCOc1ccc2c(Cc3cc(Br)c(OCC)c(OC)c3)cncc2c1O [Compound 77, 4-(3-Bromo-4-ethoxy-5-methoxybenzyl)-7-ethoxyisoquinolin-8-ol hydrochloride]
IC50: 48.6 nM

CCOc1ccc2c(Cc3cc(OC)c(OCC4CCC4)c(OC)c3)cncc2c1O [Compound 34, 4-(4-(Cyclobutylmethoxy)-3,5-dimethoxybenzyl)-7-ethoxyisoquinolin-8-ol hydrochloride]
IC50: 65 nM

CCOc1ccc2c(C(=O)c3cc(OC)c(OCC)c(OC)c3)cncc2c1OCc1ccccc1 [Compound 55, (8-(Benzyloxy)-7-ethoxyisoquinolin-4-yl)(4-ethoxy-3,5-dimethoxyphenyl)methanone]
IC50: 422 nM

CCOc1ccc2c(C(=O)c3cc(OC)c(OC)c(OC)c3)cncc2c1N=[N+]=[N-] [Compound 108, 8-Azido-7-ethoxy-4-(3,4,5-trimethoxybenzoyl)isoquinoline]
IC50: 74.8 nM

CCOc1ccc2c(Cc3cc(OC)c(N4CCCC4)c(OC)c3)cncc2c1O [Compound 76, 4-(3,5-Dimethoxy-4-(pyrrolidin-1-yl)benzyl)-7-ethoxyisoquinolin-8-ol hydrochloride]
IC50: 312 nM

COc1ccc2c(Cc3cc(OC)c(OC)c(OC)c3)cncc2c1 [Compound 27, 4-(3,4,5-Trimethoxybenzyl)-7-methoxyisoquinoline hydrochloride]
IC50: 864 nM

CCOc1ccc2c(Cc3cc(OC)c(OCC(=O)OC)c(OC)c3)cncc2c1O [Compound 48, Methyl 2-(4-((7-ethoxy-8-hydroxyisoquinolin-4-yl)methyl)-2,6-dimethoxyphenoxy)acetate hydrochloride]
IC50: 812 nM

CCOc1ccc2c(Cc3cc(OC)c(OCC#N)c(OC)c3)cncc2c1O [Compound 50, 2-(4-((7-Ethoxy-8-hydroxyisoquinolin-4-yl)methyl)-2,6-dimethoxyphenoxy)acetonitrile hydrochloride]
IC50: 69.8 nM

CCOc1ccc2c(Cc3cc(I)c(OC)c(I)c3)cncc2c1O [Compound 70, 4-(3,5-Diiodo-4-methoxybenzyl)-7-ethoxyisoquinolin-8-ol hydrochloride]
IC50: 92.8 nM

CCOc1ccc2c(Cc3cc(OC)c(OCCOC)c(OC)c3)cncc2c1O [Compound 22, 4-(4-(2-Methoxyethoxy)-3,5-dimethoxybenzyl)-7-ethoxyisoquinolin-8-ol hydrochloride]
IC50: 142 nM

CCOc1ccc2c(Cc3cc(OC)c(OCC(CC)CC)c(OC)c3)cncc2c1O [Compound 37, 7-Ethoxy-4-(4-(2-ethylbutoxy)-3,5-dimethoxybenzyl)isoquinolin-8-ol hydrochloride]
IC50: 899 nM

CCOc1ccc2c(C(=O)c3cc(OC)c(OC)c(OC)c3)cncc2c1NC(=O)[C@@H](N)Cc1ccccc1 [Compound 114, (S)-2-Amino-N-(7-ethoxy-4-(3,4,5-trimethoxybenzoyl)isoquinolin-8-yl)-3-phenylpropanamide dihydrochloride]
IC50: 92.6 nM

CCOc1ccc2c(Cc3cc(I)c(OC)c(OC)c3)cncc2c1O [Compound 72, 7-Ethoxy-4-(3-iodo-4,5-dimethoxybenzyl)isoquinolin-8-ol hydrochloride]
IC50: 18.3 nM

CCOc1ccc2c(Cc3cc(OC)c(OC)c(OC)c3)cncc2c1 [Compound 16, 4-(3,4,5-Trimethoxybenzyl)-7-ethoxyisoquinoline hydrochloride]
IC50: 435 nM

CCOc1ccc2c(Cc3cc(OC)c(OC)c(OC)c3)cncc2c1NCC(=O)OC [Compound 93, Methyl 2-(7-ethoxy-4-(3,4,5-trimethoxybenzyl)isoquinolin-8-ylamino)acetate dihydrochloride]
IC50: 334 nM

CCOc1ccc2c(C(=O)c3cc(Br)c(OC)c(OC)c3)cncc2c1O [Compound 116, (3-Bromo-4,5-dimethoxyphenyl)(7-ethoxy-8-hydroxyisoquinolin-4-yl)methanone hydrochloride]
IC50: 86.9 nM

CCOc1ccc2c(Cc3cc(OC)c(OCC)c([N+](=O)[O-])c3)cncc2c1O [Compound 74, 7-ethoxy-4-(4-ethoxy-3-methoxy-5-nitrobenzyl)isoquinolin-8-ol hydrochloride]
IC50: 238 nM

C=C(c1cc(OC)c(OC)c(OC)c1)c1cncc2c(O)c(OCC)ccc12 [Compound 95, 7-Ethoxy-4-(1-(3,4,5-trimethoxyphenyl)vinyl)isoquinolin-8-ol hydrochloride]
IC50: 49.7 nM

CCOc1ccc2c(C(=O)c3cc(OC)c(OC)c(OC)c3)cncc2c1NC(=O)OCC(C)C [Compound 113, Isobutyl (7-ethoxy-4-(3,4,5-trimethoxybenzoyl)isoquinolin-8-yl)carbamate hydrochloride]
IC50: 231 nM

CCOc1ccc2c(C(=O)c3cc(Br)c(OC)c(OC)c3)cncc2c1OC(C)=O [Compound 115, 4-(3-Bromo-4,5-dimethoxybenzoyl)-7-ethoxyisoquinolin-8-yl acetate]
IC50: 20.8 nM

CCOc1ccc2c(Cc3cc(OC)c(OC)c(OC)c3)cncc2c1NS(=O)(=O)NC(=O)OC(C)(C)C [Compound 7, tert-butyl N-(7-ethoxy-4-(3,4,5-trimethoxybenzyl)isoquinolin-8-yl)sulfamoylcarbamate]
IC50: 147 nM

CCOc1ccc2c(C(=O)c3cc(OC)c(OC)c(OC)c3)cncc2c1OC(=O)C(C)(C)C [Compound 109, 7-Ethoxy-4-(3,4,5-trimethoxybenzoyl)isoquinolin-8-yl pivalate]
IC50: 67.9 nM

CCCOc1c(OC)cc(Cc2cncc3c(OC(=S)N(C)C)c(OCC)ccc23)cc1OC [Compound 68, O-(4-(3,5-Dimethoxy-4-propoxybenzyl)-7-ethoxyisoquinolin-8-yl) dimethylcarbamothioate hydrochloride]
IC50: 152 nM

CCOc1ccc2c(C(=NO)c3cc(OC)c(OC)c(OC)c3)cncc2c1 [Compound 41, (7-ethoxyisoquinolin-4-yl)(3,4,5-trimethoxyphenyl)methanone oxime hydrochloride]
IC50: 123 nM

CCOc1ccc2c(Cc3cc(OC)c(OCC(C)(C)C)c(OC)c3)cncc2c1O [Compound 39, 4-(3,5-Dimethoxy-4-(neopentyloxy)benzyl)-7-ethoxyisoquinolin-8-ol hydrochloride]
IC50: 400 nM

CCOc1ccc2c(Cc3cc(Cl)c(OC)c(Cl)c3)cncc2c1O [Compound 69, 4-(3,5-Dichloro-4-methoxybenzyl)-7-ethoxyisoquinolin-8-ol hydrochloride]
IC50: 238 nM

CCOc1ccc2c(Cc3cc(OC)c(OC)c(OC)c3)cncc2c1Cl [Compound 106, 8-Chloro-7-ethoxy-4-(3,4,5-trimethoxybenzyl)isoquinoline hydrochloride]
IC50: 885 nM

CCOc1ccc2c(C(=S)c3cc(OC)c(OC)c(OC)c3)cncc2c1 [Compound 42, (7-Ethoxyisoquinolin-4-yl)(3,4,5-trimethoxyphenyl)methanethione hydrochloride]
IC50: 60.7 nM

CCOc1ccc2c(Cc3cc(N)c(OCC)c(OC)c3)cncc2c1O [Compound 75, 4-(3-Amino-4-ethoxy-5-methoxybenzyl)-7-ethoxyisoquinolin-8-ol hydrochloride]
IC50: 236 nM

CCOc1ccc2c(C(=O)c3cc(OC)c(OC)c(OC)c3)cncc2c1NC(C)=O [Compound 111, N-(7-Ethoxy-4-(3,4,5-trimethoxybenzoyl)isoquinolin-8-yl)acetamide hydrochloride]
IC50: 96.8 nM

CCOc1ccc2c(C(=O)c3cc(OC)c(OC)c(OC)c3)cncc2c1NS(=O)(=O)NC(=O)OC(C)(C)C [Compound 104, tert-Butyl N-(7-ethoxy-4-(3,4,5-trimethoxybenzoyl)isoquinolin-8-yl)sulfamoylcarbamate]
IC50: 38.8 nM

CCOc1ccc2c(Cc3cc(OC)c(Nc4ccccc4)c(OC)c3)cncc2c1O [Compound 52, 4-(3,5-Dimethoxy-4-(phenylamino)benzyl)-7-ethoxyisoquinolin-8-ol hydrochloride]
IC50: 118 nM

CCOc1ccc2c(C(=O)c3cc(OC)c(OCC)c(OC)c3)cncc2c1OC [Compound 47, (4-Ethoxy-3,5-dimethoxyphenyl)-(7-ethoxy-8-methoxyisoquinolin-4-yl)-methanone hydrochloride]
IC50: 129 nM

CCOc1ccc2c(C(=O)c3cc(OC)c(OCC(C)C)c(OC)c3)cncc2c1O [Compound 79, (7-Ethoxy-8-hydroxyisoquinolin-4-yl)(4-isobutoxy-3,5-dimethoxyphenyl)methanone hydrochloride]
IC50: 12.1 nM

CCOc1ccc2c(Cc3cc(OC)c(OC)c(OC)c3Cl)cncc2c1O [Compound 110, 4-(2-Chloro-3,4,5-trimethoxybenzyl)-7-ethoxyisoquinolin-8-ol hydrochloride]
IC50: 68 nM
